The test system of this experiment is PBMCs. Description: LPS-induced TNFα/IL-8 release in PBMC cells. The class given is cell-based. The following applies: Homo sapiens, assay (b), read-out: IC50 Values for Inhibition of Cytokine Release PBMCs IL-8. The protocol: Peripheral blood mononuclear cells (PBMCs) from healthy subjects are separated from whole blood using a density gradient (Lymphoprep, Axis-Shield Healthcare). The PBMCs are seeded in 96 well plates and treated with compounds at the desired concentration for 2 hours before addition of 1 ng/mL LPS (Escherichia Coli 0111:B4 from Sigma Aldrich) for 24 hours under normal tissue culture conditions (37° C., 5% CO2). The supernatant is harvested for determination of IL-8 and TNFα concentrations by sandwich ELISA (Duo-set, R&D systems) and read on the fluorescence microplate reader (Varioskan® Flash, ThermoFisher Scientific).
Usually IC50 stands for the concentration at which inhibition is half-maximal. In the case of `COc1cc(Nc2cc(Oc3ccc(NC(=O)Nc4cc(C(C)(C)C)cc(NS(C)(=O)=O)c4OC)c4ccccc34)ccn2)cc(C(=O)NCCN2CCNCC2)c1` [85(q), 3-[[4-[[4-[[5-tert-Butyl-3-(methanesulfonamido)-2-methoxyphenyl]-carbamoylamino]-1-naphthyl]oxy]-2-pyridyl]amino]-5-methoxy-N-(2-piperazin-1-ylethyl)benzamide], the IC50 came to 6.1 nM.
`COc1cc(Nc2cc(Oc3ccc(NC(=O)Nc4cc(C(C)(C)C)cc(NS(C)(=O)=O)c4OC)c4ccccc34)ccn2)cc(C(=O)NCCOCCOCCO)c1` [85(r), 3-[[4-[[4-[[5-tert-Butyl-3-(methanesulfonamido)-2-methoxyphenyl]-carbamoylamino]-1-naphthyl]oxy]-2-pyridyl]amino]-N-[2-[2-(2-hydroxyethoxy)ethoxy]-ethyl]-5-methoxy-benzamide]: the IC50 is 0.6 nM.
Then `COCCOCCOCCOCCNC(=O)c1cc(Nc2cc(Oc3ccc(NC(=O)Nc4cc(C(C)(C)C)cc(NS(C)(=O)=O)c4OC)c4ccccc34)ccn2)cc(OC)c1` [85(v), 3-[[4-[[4-[[5-tert-Butyl-3-(methanesulfonamido)-2-methoxyphenyl]-carbamoylamino]-1-naphthyl]oxy]-2-pyridyl]amino]-5-methoxy-N-[2-[2-[2-(2-methoxyethoxy)ethoxy]ethoxy]-ethyl]benzamide], with 0.4 nM.
Then `COc1cc(Nc2cc(Oc3ccc(NC(=O)Nc4cc(C(C)(C)C)cc(NS(C)(=O)=O)c4OC)c4ccccc34)ccn2)cc(C(=O)NCCN2CCC(O)CC2)c1` [85(w), 3-[[4-[[4-[[5-tert-Butyl-3-(methanesulfonamido)-2-methoxyphenyl]-carbamoylamino]-1-naphthyl]oxy]-2-pyridyl]amino]-N-[2-(4-hydroxy-1-piperidyl)ethyl]-5-methoxybenzamide], with 2.9 nM.
Then `COCCOCCOCC[S+]([O-])c1cc(Nc2cc(Oc3ccc(NC(=O)Nc4cc(C(C)(C)C)cc(NS(C)(=O)=O)c4OC)c4ccccc34)ccn2)cc(OC)c1` (stereo not shown) [85(x), 1-[5-tert-Butyl-3-(methanesulfonamido)-2-methoxyphenyl]-3-[4-[2-[3-methoxy-5-[2-[2-(2-methoxyethoxy)ethoxy]ethylsulfinyl]anilino]pyridin-4-yl]oxy-1-naphthyl]urea], with 0.9 nM; and `COCCOCCOCCNC(=O)c1cc(Nc2nccc(Oc3ccc(NC(=O)Nc4cc(C(C)(C)C)cc(NS(C)(=O)=O)c4OC)c4ccccc34)n2)cc(OC)c1` [Example 7, 3-((4-((4-(3-(5-(tert-Butyl)-2-methoxy-3-(methylsulfonamido)phenyl)ureido)naphthalen-1-yl)oxy)pyrimidin-2-yl)amino)-5-methoxy-N-(2-(2-(2-methoxyethoxy)ethoxy)ethyl)-benzamide], with 1.1 nM.
Consider `COCCOCCOCCOc1cc(Nc2nccc(Oc3ccc(NC(=O)Nc4cc(C(C)(C)C)ccc4OC)c4ccccc34)n2)cc(OC)c1` [Example 8, 1-(5-(tert-Butyl)-2-methoxyphenyl)-3-(4-((2-((3-methoxy-5-(2-(2-(2-methoxyethoxy)ethoxy)-ethoxy)phenyl)amino)pyrimidin-4-yl)oxy)naphthalen-1-yl)urea], for which the IC50 was 28.1 nM.
Then `C#Cc1cc(Nc2nccc(Oc3ccc(NC(=O)Nc4cc(C(C)(C)C)cc(C(=O)NC)c4OC)c4ccccc34)n2)cc(C(=O)NCCN2CCOCC2)c1` [Example 9, 5-(tert-Butyl)-3-(3-(4-((2-((3-ethynyl-5-((2-morpholinoethyl)carbamoyl)phenyl)amino)-pyrimidin-4-yl)oxy)naphthalen-1-yl)ureido)-2-methoxy-N-methylbenzamide], with 1.2 nM; and `COCCOCCOCCOc1cc(Nc2nccc(Oc3ccc(NC(=O)Nc4cc(C(C)(C)C)cc(C(=O)N(C)C)c4OC)c4ccccc34)n2)cc(OC)c1` [Example 19, 5-(tert-Butyl)-2-methoxy-3-(3-(4-((2-((3-methoxy-5-(2-(2-(2-methoxyethoxy)ethoxy)-ethoxy)phenyl)amino)pyrimidin-4-yl)oxy)naphthalen-1-yl)ureido)-N,N-dimethylbenzamide], with 8.7 nM; and `COCCOCCOCCOc1cc(Nc2nccc(Oc3ccc(NC(=O)Nc4cc(C(C)(C)C)cc(C(=O)O)c4OC)c4ccccc34)n2)cc(OC)c1` [Example 21, 5-(tert-Butyl)-2-methoxy-3-(3-(4-((2-((3-methoxy-5-(2-(2-(2-methoxyethoxy)ethoxy)-ethoxy)phenyl)amino)pyrimidin-4-yl)oxy)naphthalen-1-yl)ureido)benzoic acid], with 34.4 nM.
The result for `COCCOCCOCCOc1cc(Nc2nccc(Oc3ccc(NC(=O)Nc4cc(C(C)(C)C)cc(C#N)c4OC)c4ccccc34)n2)cc(OC)c1` [Example 22, 1-(5-(tert-Butyl)-3-cyano-2-methoxyphenyl)-3-(4-((2-((3-methoxy-5-(2-(2-(2-methoxy-ethoxy)ethoxy)ethoxy)phenyl)amino)pyrimidin-4-yl)oxy)naphthalen-1-yl)urea] reads 16.9 nM; that for `COCCOCCOCCOc1cc(Nc2nccc(Oc3ccc(NC(=O)Nc4cc(C(C)(C)C)cc(N)c4OC)c4ccccc34)n2)cc(OC)c1` [Example 25, 1-(3-Amino-5-(tert-butyl)-2-methoxyphenyl)-3-(4-((2-((3-methoxy-5-(2-(2-(2-methoxy-ethoxy)ethoxy)ethoxy)phenyl)amino)pyrimidin-4-yl)oxy)naphthalen-1-yl)urea], 7 nM.
The result for `COc1cc(Nc2nccc(Oc3ccc(NC(=O)Nc4cc(C(C)(C)C)cc(NS(C)(=O)=O)c4OC)c4ccccc34)n2)cc(C(=O)NCCOCCOCCC(=O)O)c1` [Example 26, 3-(2-(2-(3-((4-((4-(3-(5-(tert-Butyl)-2-methoxy-3-(methylsulfonamido)phenyl)ureido)-naphthalen-1-yl)oxy)pyrimidin-2-yl)amino)-5-methoxybenzamido)ethoxy)ethoxy)-propanoic acid] reads 21.7 nM; that for `COCCOCCOCCOc1cc(Nc2nccc(Oc3ccc(NC(=O)Nc4cc(C(C)(C)C)cc(Nc5ncccn5)c4OC)c4ccccc34)n2)cc(OC)c1` [Example 28, 1-(5-(tert-Butyl)-2-methoxy-3-(pyrimidin-2-ylamino)phenyl)-3-(4-((2-((3-methoxy-5-(2-(2-(2-methoxyethoxy)ethoxy)ethoxy)phenyl)amino)pyrimidin-4-yl)oxy)naphthalen-1-yl)urea], 11.9 nM; that for `COc1cc(Nc2nccc(Oc3ccc(NC(=O)Nc4cc(C(C)(C)C)cc(NS(C)(=O)=O)c4OC)c4ccccc34)n2)cc(OCCOCCOCCC(=O)O)c1` [Example 30, 3-(2-(2-(3-((4-((4-(3-(5-(tert-Butyl)-2-methoxy-3-(methylsulfonamido)phenyl)ureido)-naphthalen-1-yl)oxy)pyrimidin-2-yl)amino)-5-methoxyphenoxy)ethoxy)ethoxy)propanoic acid], 5.7 nM.
`COc1cc(Nc2nccc(Oc3ccc(NC(=O)Nc4cc(C(C)(C)C)cc(NS(C)(=O)=O)c4OC)c4ccccc34)n2)cc(OCCOCCC(=O)O)c1` [Example 31, 3-(2-(3-((4-((4-(3-(5-(tert-Butyl)-2-methoxy-3-(methylsulfonamido)phenyl)ureido)-naphthalen-1-yl)oxy)pyrimidin-2-yl)amino)-5-methoxyphenoxy)ethoxy)propanoic acid]: the IC50 is 7.2 nM.

The values are drawn from US10435361B2, “Kinase inhibitors” (Topivert Pharma Limited, priority 2013, dated 2019).
